Experimental data published in patent US12721818B2, “Compositions and methods for delivery of RNA” (Rejuvenation Technologies Inc., priority 2021, dated 2026).

Experiment: pK of the ionizable lipid (Table 6A)
Assay type: physicochemical
Details: ionizable lipid of the Table 6A formulation

pK: ~6.4
Structure (SMILES): CCCCCCCC/C=C\CCCCCCCC(=O)Oc1ccc(CC(=O)OCCC2CCN(CCSSCCN3CCC(CCOC(=O)Cc4ccc(OC(=O)CCCCCCC/C=C\CCCCCCCC)cc4)CC3)CC2)cc1 [SS-OP]
